Assay results reported in patent US5126336A, “Antibiotic C-3 catechol-substituted cephalosporin compounds, compositions and method of use thereof” (Bristol-Myers Squibb Company, priority 1990, dated 1992).
≈ marks a conversion by molar mass, not a printed value. Where two headings read alike, the source gives them in different places.

Experiments:
[1] = system: Gn-Ia: Cephalothin(CET)-sensitive E. coli (2), Kl. pneumoniae (1) and Pr. mirabilis (2); experiment: MIC, two-fold serial agar dilution, Gn-Ia; type: cell-based; conditions: 5 strains; for MIC: read-out: Geometric mean of MIC
Description: (§1) Minimum inhibitory concentrations (MICs) of the present series of cephalosporins were determined against 32 strains of test organisms by two-fold serial agar dilution method in Mueller-Hinton agar. Geometric means of MICs were calculated against six groups of the test organisms which are classified as follows and summarized in Table 1.
Gn-Ia Cephalothin(CET)-sensitive E. coli (2), Kl.
pneumoniae (1) and Pr. mirabilis (2).

[2] = system: Gp-Ia: Penicillin(PC)-sensitive S. aureus (5 strains); experiment: MIC, two-fold serial agar dilution, Gp-Ia; type: cell-based; conditions: for MIC: Staphylococcus aureus, read-out: Geometric mean of MIC
Description: as §1
Gp-Ia Penicillin(PC)-sensitive S. aureus (5 strains).

[3] = system: Gp-Ib: Penicillin(PC)-resistant S. aureus (5); experiment: MIC, two-fold serial agar dilution, Gp-Ib; type: cell-based; conditions: 5 strains; for MIC: Staphylococcus aureus, read-out: Geometric mean of MIC
Description: as §1
Gp-Ib Penicillin(PC)-resistant S. aureus (5).

S. aureus Smith [4] = experiment: In vivo antibacterial activity, S. aureus Smith infection; conditions: mice, im just after bacterial challenge; for ED50: Staphylococcus aureus, read-out: PD50
Description: (§2) In vivo antibacterial activity was determined against three bacterial infections (S. aureus Smith, E. coli Juhl and P. aeruginosa A9843A) by intramuscular administration to mice just after the bacterial challenge. PD50 values are summarized in Table 3 in comparsion with the MIC values against the corresponding organisms.

[5] = system: Gn-Ib: Cephalothin(CET)-resistant E. coli (3) and Kl. pneumoniae (2); experiment: MIC, two-fold serial agar dilution, Gn-Ib; type: cell-based; conditions: for MIC: Escherichia coli
Description: as §1
Gn-Ib Cephalothin(CET)-resistant E. coli (3) and Kl.

P. aeruginosa A9843A [6] = experiment: In vivo antibacterial activity, P. aeruginosa A9843A infection; parameters: species or system mice; conditions: for ED50: Pseudomonas aeruginosa, A9843A, in Mus musculus, im, read-out: PD50
Description: as §2

E. coli Juhl A15119 = experiment: MIC, agar dilution; type: cell-based; conditions: E. coli Juhl (Table 3)
Description: as §1, §2
(§3) Medium; MuellerHinton agar (pH = 7.2)
(§4) Incubation temperature: 32° C., 18 hr
(§5) Inoculum size; 10^6 cells/ml

P. aeruginosa A9843A [7] = experiment: MIC, agar dilution; type: cell-based
Description: as §1, §2, §3, §4, §5

S. aureus Smith [8] = experiment: MIC, agar dilution; type: cell-based; conditions: S. aureus Smith (Table 3)
Description: as §1, §2, §3, §4, §5

[9] = system: Gn-II: M.morganii (1), Ent. cloacae (2) and Ser. marcescens (2); experiment: MIC, two-fold serial agar dilution, Gn-II; type: cell-based; conditions: for MIC: read-out: Geometric mean of MIC
Description: as §1
Gn-II M.morganii (1), Ent. cloacae (2) and Ser.

E. coli Juhl = experiment: In vivo antibacterial activity, E. coli Juhl infection; conditions: mice, im just after bacterial challenge; for ED50: Escherichia coli, read-out: PD50
Description: as §2

[10] = system: Gn-III: Ps. aeruginosa (7); experiment: MIC, two-fold serial agar dilution, Gn-III; type: cell-based; conditions: for MIC: Pseudomonas aeruginosa, read-out: Geometric mean of MIC
Description: as §1
Gn-III Ps. aeruginosa (7).

[11] = read-out: Geometric mean of MIC, Gn-Ib, 5 strains, Mueller-Hinton agar
[12] = Escherichia coli, JUHLA15119, 18 h, read-out: MIC
[13] = Pseudomonas aeruginosa, A9843A, 18 h
[14] = Staphylococcus aureus, 18 h, read-out: MIC
[15] = Gn-III, 7 strains, Mueller-Hinton agar
[16] = Gn-II, 5 strains, Mueller-Hinton agar

| SMILES | MIC ([1]; Mueller-Hinton agar) [µg/mL] | MIC ([2]; Mueller-Hinton agar) [µg/mL] | MIC ([3]; Mueller-Hinton agar) [µg/mL] | ED50 (S. aureus Smith [4]) [mg/kg] | MIC [5, 11] [µg/mL] | ED50 (P. aeruginosa A9843A [6]) [mg/kg] | MIC (E. coli Juhl A15119; [12]) [µg/mL] | MIC (P. aeruginosa A9843A [7]; [13]) [µg/mL] | MIC (S. aureus Smith [8]; [14]) [µg/mL] | MIC [9] [µg/mL] | ED50 (E. coli Juhl) [mg/kg] | MIC [10, 15] [µg/mL] | further results |
| --- | --- | --- | --- | --- | --- | --- | --- | --- | --- | --- | --- | --- | --- |
| CC(C)(O/N=C(\C(=O)NC1C(=O)N2C(C(=O)[O-])=C(/C=C\C[N+]3(C)Cc4cc(O)c(O)cc4C3)CS[C@H]12)c1csc(N)n1)C(=O)O (stereo partly drawn) [Compound Ib, 7-[(Z)-2-(2-aminothiazol-4-yl)-2-(1-carboxy-1-methylethoxy-imino)acetamido]-3-[(Z)-3-(5,6-dihydroxy-2-methyl-2-isoindolinio)-1-propen-1-yl]-3-cephem-4-carboxylate] | 0.46 (≈ 0.698 µM) | 25 (≈ 38 µM) | 50 (≈ 75.9 µM) | 3.8 | 0.26 (≈ 0.395 µM) | 2 | 0.8 (≈ 1.21 µM) | 1.6 (≈ 2.43 µM) | 25 (≈ 38 µM) | 0.91 (≈ 1.38 µM) | 0.1 | 1.4 (≈ 2.13 µM) | – |
| CO/N=C(\C(=O)NC1C(=O)N2C(C(=O)[O-])=C(/C=C/C[N+]3(C)Cc4cc(O)c(O)cc4C3)CS[C@H]12)c1csc(N)n1 (stereo partly drawn) [Compound Id, 7-[(Z)-2-(2-aminothiazol-4-yl)-2-methoxyiminoacetamido]-3-[(E)-3-(5,6-dihydroxy-2-methyl-2-isoindolinio)-1-propen-1-yl]-3-cephem-4-carboxylate] | 0.15 (≈ 0.256 µM) | 1.6 (≈ 2.73 µM) | 3.1 (≈ 5.28 µM) | 0.33 | 0.46 (≈ 0.784 µM) | 6.8 | 0.4 (≈ 0.682 µM) | 3.1 (≈ 5.28 µM) | 1.6 (≈ 2.73 µM) | 0.79 (≈ 1.35 µM) | 0.012 | 2.6 (≈ 4.43 µM) | – |
| CO/N=C(\C(=O)NC1C(=O)N2C(C(=O)[O-])=C(/C=C\C[N+]3(C)Cc4cc(O)c(O)cc4C3)CS[C@H]12)c1csc(N)n1 (stereo partly drawn) [Compound Ie, 7-[(Z)-2-(2-amino-thiazol-4-yl)-2-methoxyiminoacetamido]-3-[(Z)-3-(5,6-dihydroxy-2-methyl-2-isoindolinio)-1-propen-1-yl]-3-cephem-4-carboxylate] | 0.13 (≈ 0.222 µM) | 4.7 (≈ 8.01 µM) | 6.3 (≈ 10.7 µM) | 0.72 | 0.26 (≈ 0.443 µM) | 9.9 | 0.2 (≈ 0.341 µM) | 3.1 (≈ 5.28 µM) | 6.3 (≈ 10.7 µM) | – | 0.025 | 2.9 (≈ 4.94 µM) | MIC [9, 16]: 0.91 µg/mL (≈ 1.55 µM) |
| CC(C)(O/N=C(\C(=O)NC1C(=O)N2C(C(=O)O)=C(/C=C/Cn3ccc4cc(=O)c(O)cc-4c3)CS[C@H]12)c1csc(N)n1)C(=O)O (stereo partly drawn) [Iv, 7-[(Z)-2-(2-Aminothiazol-4-yl)-2-(1-carboxy-1-methylethoxyimino)acetamido]-3-[(E)-3-(2,6-dihydro-7-hydroxy-6-oxo-isoquinolin-2-yl)-1-propen-1-yl]-3-cephem-4-carboxylic acid] | 0.017 (≈ 0.026 µM) | 12.5 (≈ 19.1 µM) | 16 (≈ 24.4 µM) | 0.98 | 0.0072 (≈ 0.011 µM) | 0.17 | 0.1 (≈ 0.153 µM) | 0.1 (≈ 0.153 µM) | 12.5 (≈ 19.1 µM) | 0.076 (≈ 0.116 µM) | 0.019 | – | MIC ([1]; second run): 0.0094 µg/mL (≈ 0.0144 µM); MIC ([2]; second run): 16 µg/mL (≈ 24.4 µM); MIC ([3]; second run): 16 µg/mL (≈ 24.4 µM); MIC ([5]; read-out: Geometric mean of MIC, second run, Gn-Ib, 5 strains): 0.0083 µg/mL (≈ 0.0127 µM); Geometric mean of MIC ([9]; second run, Gn-II, 5 strains): 0.076 µg/mL; MIC [10]: 0.11 µg/mL (≈ 0.168 µM); MIC ([10]; second run, Gn-III, 7 strains): 0.15 µg/mL (≈ 0.229 µM) |
| CO/N=C(\C(=O)NC1C(=O)N2C(C(=O)O)=C(/C=C/Cn3ccc4cc(=O)c(O)cc-4c3)CS[C@H]12)c1csc(N)n1 (stereo partly drawn) [Iw, 7-[(Z)-2-(2-Aminothiazol-4-yl)-2-methoxyimino-acetamido]-3-[(E)-3-(2,6-dihydro-7-hydroxy-6-oxo-isoquino-lin-2-yl)-1-propen-1-yl]-3-cephem-4-carboxylic acid] | – | – | – | – | – | – | – | – | – | – | – | – | Geometric mean of MIC ([1]; Mueller-Hinton agar): 0.015 µg/mL; Geometric mean of MIC ([2]; Mueller-Hinton agar): 0.8 µg/mL; Geometric mean of MIC ([3]; Mueller-Hinton agar): 1.4 µg/mL; PD50 (S. aureus Smith [4]): 0.18 mg/kg; Geometric mean of MIC ([5]; Gn-Ib, 5 strains, Mueller-Hinton agar): 0.022 µg/mL; PD50 (P. aeruginosa A9843A [6]; mice, im just after bacterial challenge, P. aeruginosa 9843A): 0.39 mg/kg; MIC (E. coli Juhl A15119): 0.1 µg/mL (≈ 0.172 µM); MIC (P. aeruginosa A9843A [7]; P. aeruginosa 9843A (Table 3)): 12.5 µg/mL (≈ 21.5 µM); MIC (S. aureus Smith [8]): 0.8 µg/mL (≈ 1.37 µM); Geometric mean of MIC [9, 16]: 0.13 µg/mL; PD50 (E. coli Juhl): 0.19 mg/kg; Geometric mean of MIC [10, 15]: 13.0 µg/mL |
